Laboratory results reported in BindingDB's records for doi:10.7270/Q2Z31X54 (Burnham Center For Chemical Genomics, 2011).
pEC50: −log10 of the molar value.

Target: T1, Endoribonuclease toxin MazF (Escherichia coli (strain K12), UniProt P0AE70)
T1 sequence (P0AE70 whole entry): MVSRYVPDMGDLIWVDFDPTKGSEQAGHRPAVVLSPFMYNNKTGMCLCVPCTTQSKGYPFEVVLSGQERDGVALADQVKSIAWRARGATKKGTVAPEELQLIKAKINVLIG
Assay: MazF toxin RNase activators, dose response, biochemical, fluorescence, single-stranded RNA substrate, uHTS hits (AID 588481)

SMILES	pEC50	pEC50 (inactive by the depositor's call)
Cn1c(C(C#N)C(=O)COc2ccc3ccccc3c2)nc2ccccc21 (stereo not drawn) [(2E)-2-(3-methyl-1H-benzimidazol-2-ylidene)-4-(2-naphthalenyloxy)-3-oxobutanenitrile]	< 4.00	
CCOc1cccc(C2C(C(=O)c3ccc(C)o3)C(=O)C(=O)N2c2nccs2)c1 (stereo not drawn) [2-(3-ethoxyphenyl)-3-(5-methylfuran-2-yl)carbonyl-4-oxidanyl-1-(1,3-thiazol-2-yl)-2H-pyrrol-5-one]	4.77	
O=C1NC(=O)N(C2CCCCC2)C(=O)C1=CCC=Nc1ccccc1 [(5Z)-5-[(E)-3-anilinoprop-2-enylidene]-1-cyclohexyl-1,3-diazinane-2,4,6-trione]	< 4.00	
COc1cc(C2c3c(-c4cccs4)n[nH]c3OC(=N)C2C#N)cc(OC)c1O (stereo not drawn) [SMR000275523]	< 4.00	
O=C1N=c2ccccc2=C1NNc1ccc(F)cc1	< 4.00	
Cc1ccc(N/N=C2/C(=O)Nc3ccc(F)cc32)cc1 [5-fluoro-3-[2-(4-methylphenyl)hydrazono]indolin-2-one]	< 4.00	
N#CC(C(=O)c1ccc([N+](=O)[O-])o1)c1nc2ccccc2[nH]1 (stereo not drawn)	< 4.00	
Cc1cc(O)n(-c2ccc(NCc3ccc(Cl)cc3)c([N+](=O)[O-])c2)c1O [1-{4-[(4-chlorobenzyl)amino]-3-nitrophenyl}-3-methylpyrrolidine-2,5-dione]	4.02	
O=C(c1ccc2ccccc2n1)c1[nH][nH]c2c(O)n(-c3cccc(C(F)(F)F)c3)c(=O)c1-2 [SMR000212847]	4.32	
CSc1ccc(C2C(C(=O)c3ccco3)C(=O)C(=O)N2c2nnc(SC)s2)cc1 (stereo not drawn) [3-(furan-2-carbonyl)-4-hydroxy-2-(4-methylsulfanylphenyl)-1-(5-methylsulfanyl-1,3,4-thiadiazol-2-yl)-2H-pyrrol-5-one]	< 4.00	
Oc1ccc2ccccc2c1C=Nn1c(O)csc1=S [MLS002707175]	< 4.00	
Cc1ccc(C2=Nc3nnnn3C(c3ccc(N(C)C)cc3)C2)cc1 (stereo not drawn) [SMR000092467]	< 4.00	
COc1ccc(Nc2oc3cc(=O)ccc-3cc2C(=O)NCC2CCCO2)c(OC)c1 (stereo not drawn) [2-(2,4-dimethoxyanilino)-7-oxo-N-(2-oxolanylmethyl)-1-benzopyran-3-carboxamide]	< 4.00	
O=[N+]([O-])c1ccc(N=NCc2cccc3ccccc23)nc1 [N-(naphthalen-1-ylmethylideneamino)-5-nitro-pyridin-2-amine]	< 4.00	
CSc1nnc(N2C(=O)C(=O)C(C(=O)c3ccc(C)o3)C2c2ccc(C)cc2)s1 (stereo not drawn) [SMR000650392]	5.01	
O=c1cc2oc(O)c3cc(O)c(O)c(O)c3c-2oc1=O [6,8,9,10-tetrahydroxypyran[3,2-c]isochromene-2,3-quinone]	4.09	
CCOC(=O)c1c(NC=C2C(=O)NC(=O)NC2=O)sc2c1CCC2 [ethyl 2-{[(1E)-(2,4,6-trioxohexahydropyrimidin-5-yl)methylene]amino}-5,6-dihydro-4H-cyclopenta[b]thiophene-3-carboxylate]	< 4.00	
COCc1n[nH]c2c1C(c1cc(OC)c(O)c(OC)c1)C(C#N)C(=N)O2 (stereo not drawn) [6-azanyl-4-(3,5-dimethoxy-4-oxidanyl-phenyl)-3-(methoxymethyl)-2,4-dihydropyrano[2,3-c]pyrazole-5-carbonitrile]	< 4.00	
N#Cc1ccc(-n2c(O)c3[nH][nH]c(C(=O)c4ccc5ccccc5n4)c-3c2=O)cc1 [4-[(3aS,6aS)-4,6-dioxo-3-[oxo(2-quinolinyl)methyl]-3a,6a-dihydro-1H-pyrrolo[3,4-c]pyrazol-5-yl]benzonitrile]	4.82	
Cc1ccc2nc(N3C(=O)C(=O)C(C(=O)c4ccco4)C3c3cccs3)sc2c1 (stereo not drawn)	< 4.00	

SMILES	pEC50	pEC50 (inactive by the depositor's call)
Cc1ccc(S(=O)(=O)N[N-][C+]2CCC(C(C)(C)C)CC2)cc1[N+](=O)[O-] [SMR000241764]		4.28
Cc1[nH]c2ccccc2c1/C=C1\N=C(c2ccc(C(F)(F)F)cc2)OC1=O [SMR000152363]	< 4.00	
C=CCOc1cccc(C2C(C(=O)c3ccc(C)o3)C(=O)C(=O)N2c2nccs2)c1 (stereo not drawn) [3-(5-methylfuran-2-yl)carbonyl-4-oxidanyl-2-(3-prop-2-enoxyphenyl)-1-(1,3-thiazol-2-yl)-2H-pyrrol-5-one]	4.94	
O=C1Nc2ccccc2C1=NNc1ccccc1 [3-(phenylhydrazo)-2-indolone]	< 4.00	
O=[N+]([O-])c1cc/c(=N\c2ccccc2O)c2no[nH]c1-2 [MLS001206694]	< 4.00	
O=[N+]([O-])c1ccc(N=NCc2ccccc2)c(F)c1 [2-fluoranyl-4-nitro-N-[(phenylmethylidene)amino]aniline]	< 4.00	
CCSc1nnc(N2C(=O)C(=O)C(C(=O)c3ccco3)C2c2cccc(OC)c2)s1 (stereo not drawn) [MLS001140620]	< 4.00	
CCCCN1C(=O)C(=NNc2ccccc2O)c2ccccc21 [(3Z)-1-butyl-3-[(2-hydroxyphenyl)hydrazinylidene]indol-2-one]	4.35	
CCN1C(=O)C(C=NN=Cc2ccccc2)c2ccc(C3=NNC(=O)CC3)cc21 (stereo not drawn) [benzaldehyde {[1-ethyl-2-oxo-6-(6-oxo-1,4,5,6-tetrahydro-3-pyridazinyl)-1,2-dihydro-3H-indol-3-ylidene]methyl}hydrazone]	< 4.00	
O=C1N=c2ccccc2=C1NNc1cccc(Cl)c1 [(3E)-1H-indole-2,3-dione 3-[(3-chlorophenyl)hydrazone]]	< 4.00	
Cc1[nH]c2ccccc2c1/C=C1\N=C(c2ccc(F)cc2)OC1=O [2-(4-fluorophenyl)-4-[(2-methyl-1H-indol-3-yl)methylene]-1,3-oxazol-5(4H)-one]	< 4.00	
Clc1cccc(C(Cc2nc3ccccc3[nH]2)N=Nc2ccccc2)c1 (stereo not drawn) [MLS000374846]	< 4.00	
Cc1oc(C)c2c(=O)ccc3c(c12)OC(=N)C(C#N)C3c1ccccc1 (stereo not drawn)	< 4.00	
COc1cc2c(cc1OC)C(CC(=O)c1ccc([N+](=O)[O-])c(C)c1)=NCC2 [(2Z)-2-(6,7-dimethoxy-3,4-dihydro-2H-isoquinolin-1-ylidene)-1-(3-methyl-4-nitrophenyl)ethanone]	< 4.00	
Cc1ccc(Cl)c2c1=NC(=O)C=2NNc1ccccc1	4.72	
COc1ccc(N=CCC(=O)c2ccc(C)cc2)cc1OC [SMR000269732]	< 4.00	
C=c1[nH]n(-c2ccccc2)c(=O)c1=Cc1cc(C)n(C2CC2)c1C [MLS001018445]	< 4.00	
CCCCOc1cccc(C2C(C(=O)c3ccc(C)o3)C(=O)C(=O)N2c2nnc(C)s2)c1 (stereo not drawn) [2-(3-butoxyphenyl)-3-(5-methylfuran-2-yl)carbonyl-1-(5-methyl-1,3,4-thiadiazol-2-yl)-4-oxidanyl-2H-pyrrol-5-one]	< 4.00	
CCCN1C(=O)C(=NNc2ccc3ccccc3n2)c2ccccc21 [(3Z)-1-propyl-3-(2-quinolinylhydrazinylidene)-2-indolone]	< 4.00	
Cc1cccc(NNC2=c3cc(F)ccc3=NC2=O)c1 [MLS000673317]	4.41	

SMILES	pEC50	pEC50 (inactive by the depositor's call)
O=C1N=c2ccc(Br)cc2=C1NNc1ccc(F)cc1 [SMR000564049]	< 4.00	
CCN(CC)c1ccc(CN=Nc2ccc([N+](=O)[O-])cn2)cc1 [N-[[4-(diethylamino)phenyl]methylideneamino]-5-nitro-pyridin-2-amine]	< 4.00	
O=C1C(=O)N(c2nccs2)C(c2ccccc2)C1C(=O)c1cc2ccccc2o1 (stereo not drawn) [3-(1-benzofuran-2-carbonyl)-4-hydroxy-2-phenyl-1-(1,3-thiazol-2-yl)-2H-pyrrol-5-one]	< 4.00	
N=C(N)C1=CC(=O)/C(=C/C=c2ccc(=C(N)N)cc2)C=C1 [(4E)-4-[2-[4-[bis(azanyl)methylidene]cyclohexa-2,5-dien-1-ylidene]ethylidene]-3-oxidanylidene-cyclohexa-1,5-diene-1-carboximidamide;2-oxidanylethanesulfonic acid]	5.32	
CCOc1ccc(N=CCC(=O)c2ccc(OC)cc2)c([N+](=O)[O-])c1	< 4.00	
COc1ccc(C=C2CCCC(C(=O)C(F)(F)F)C2=O)cc1 (stereo not drawn) [SMR000142699]	< 4.00	
Cc1ccc(NN=C2C(=O)N(CN3CCOCC3)c3ccccc32)cc1 [(3Z)-3-[(4-methylphenyl)hydrazinylidene]-1-(4-morpholinylmethyl)-2-indolone]	4.40	
CCC(N=Nc1cccc(C)c1)c1cnnc(SC)n1 (stereo not drawn) [MLS000705906]	< 4.00	
COc1cccc(C2=Nc3nnnn3C(c3ccc(N(C)C)cc3)C2)c1 (stereo not drawn) [4-[5-(3-methoxyphenyl)-1,7-dihydro-[1,2,3,4]tetrazolo[1,5-a]pyrimidin-7-yl]-N,N-dimethyl-aniline]	< 4.00	
O=[N+]([O-])c1ccc(N=NCc2ccc3c(c2)OCO3)nc1 [N-(1,3-benzodioxol-5-ylmethylideneamino)-5-nitro-pyridin-2-amine]	4.39	
CC1(C)CC(=O)C(N=Nc2cc3c(cc2[N+](=O)[O-])OCCO3)C(=O)C1 [SMR000348183]	< 4.00	
O=C(c1ccc2ccccc2n1)c1[nH][nH]c2c(O)n(-c3cccc(F)c3)c(=O)c1-2 [(3aS,6aS)-5-(3-fluorophenyl)-3-[oxo(2-quinolinyl)methyl]-3a,6a-dihydro-1H-pyrrolo[3,4-c]pyrazole-4,6-dione]	4.69	
CC1CC(=O)C2=C(C1)OC(=N)C(C#N)C2c1coc2ccccc2c1=O (stereo not drawn)	< 4.00	
O=C1N=c2ccccc2=C1NNc1ccccc1F	< 4.00	
COc1ccc(CN=Nc2ccc([N+](=O)[O-])cc2S(=O)(=O)N2CCN(C)CC2)cc1 [MLS000553953]	< 4.00	
O=C1Nc2ccc([N+](=O)[O-])cc2C1=NNc1ccc(F)cc1	< 4.00	
O=c1[nH]c(N=NCc2ccc(F)cc2)nc2ccccc12 [MLS000700887]	5.15	
Cc1nnc(N2C(=O)C(=O)C(C(=O)c3ccco3)C2c2ccc(C(C)(C)C)cc2)s1 (stereo not drawn) [2-(4-tert-butylphenyl)-3-(furan-2-carbonyl)-4-hydroxy-1-(5-methyl-1,3,4-thiadiazol-2-yl)-2H-pyrrol-5-one]	< 4.00	
